From ChEMBL document CHEMBL3108687, “Isolation and structures of pipecolidepsins A and B, cytotoxic cyclic depsipeptides from the Madagascan sponge Homophymia lamellosa” (2014)

Legend:
Type in all cases: functional
[1] = system: MDA-MB-231; assay: Growth inhibition of human MDA-MB-231 cells after 72 hrs by sulforhodamine B assay; details: MDA-MB-231, 72 h
[2] = system: HT-29; assay: Growth inhibition of human HT-29 cells after 72 hrs by sulforhodamine B assay; details: HT-29, 72 h
[3] = system: A549; assay: Growth inhibition of human A549 cells after 72 hrs by sulforhodamine B assay; details: A549, 72 h

GI50 [1] [nM]	GI50 [2] [nM]	GI50 [3] [nM]	Compound
20	10	40	CCO[C@H](C(N)=O)[C@@H]1NC(=O)[C@H](CCC(N)=O)N(C)C(=O)[C@H](CC(C)C)NC(=O)[C@@H](CCCCN)NC(=O)[C@@H]([C@@H](C)O)NC(=O)[C@H](NC(=O)[C@@H](NC(=O)[C@H](O)[C@H](O)[C@H](CCC(N)=O)NC(=O)[C@H](NC(=O)[C@H](C)[C@H](O)[C@H](C)CC(C)C)[C@H](O)C(=O)O)[C@@H](C)[C@@H](C)C(N)=O)[C@@H]([C@H](C)C(C)C)OC(=O)[C@@H]2CCCCN2C(=O)[C@@H](CC(=O)O)NC1=O
700	1120	600	CCO[C@H](C(N)=O)[C@@H]1NC(=O)[C@H](CCC(N)=O)N(C)C(=O)[C@H](CC(C)C)NC(=O)[C@@H](CCCCN)NC(=O)[C@@H]([C@@H](C)O)NC(=O)[C@H](NC(=O)[C@@H](NC(=O)[C@H](O)[C@H](O)[C@H](CCC(N)=O)NC(=O)[C@@H](CC(=O)O)NC(=O)[C@H](C)[C@H](O)[C@H](C)CC(C)C)[C@@H](C)[C@@H](C)C(N)=O)[C@@H]([C@H](C)C(C)C)OC(=O)[C@@H]2CCCCN2C(=O)[C@@H](CC(=O)O)NC1=O
